Assay results published in patent US10781185B2, “Heterocyclic compounds for the inhibition of PASK” (BioEnergenix LLC, priority 2009, dated 2020).

Each molecule was assayed against PASK (Homo sapiens (Human), UniProt Q96RG2) (assay: PAS Kinase FRET Assay). Conditions: TR-FRET, Ulight-peptide substrate; read-out: IC50 Kinase Domain.
Type: biochemical
Source text: PAS Kinase FRET Assay The aim of the FRET assay is to determine the inhibition potential of test compounds on targeted kinase. This assay platform provides a homogenous screening method for measuring kinase activity by quantitating the amount of phospho-substrate in solution following a kinase reaction. In the presence of kinase and ATP, the Ulight-peptide is phosphorylated and captured by an anti-phospho-substrate antibody, which brings the Eu chelate donor and Ulight acceptor dyes into close proximity. […] The contents of the plate were and incubated at RT for 1 h. The reaction was stopped by adding 5 μl of stop solution to each test well followed by mixing and incubation at RT for 10 minutes. 5 μl of detection mix (detection antibody diluted in detection buffer) was added; the contents of the plate were mixed and then incubated in the dark for 1 hour at RT. […] The results were graphed to calculate the EC50. Titration of ATP at the EC50 concentration of kinase to determine ATP Km,app. was performed using the following method. […] The contents of the plate were and incubated at RT for 1 h. The reaction was stopped by adding 5 μl of stop solution to each test well followed by mixing and incubation at RT for 10 minutes. 5 μl of detection mix (detection antibody diluted in detection buffer) was added; the contents of the plate were mixed and then incubated in the dark for 1 hour at RT. […] The results were graphed to calculate the EC50 as the ATP Km,app. […] If compound is not soluble under this condition, it was diluted to 3 mM. Kinase reaction buffer was prepared containing 10 mM MgCl2, 50 mM HEPES, 1 mM EGTA, 0.01% TWEEN-20, 2 mM DTT. […] As a positive control, 2.5 μl of positive compound was added to assay wells, and 2.5 μl of DMSO to assay wells as vehicle control. Kinase solution was prepared in reaction buffer at 2× final assay concentration. Kinase solution (5 μl) was added to each well of the assay plate. The substrate and ATP solution was prepared in kinase reaction buffer at 4× final assay concentration. The kinase reaction was started by adding 2.5 μl of substrate+ATP mix solution to each well of the assay plate. The plate is mixed on a plate shaker; then covered and allowed to react for 2 hours in the dark at 25° C. without shaking. The reaction was stopped by adding 5 μl of stop solution to each test well followed by mixing and incubation at RT for 10 minutes in the dark. 5 μl of detection mix (detection antibody diluted in detection buffer) was added; the contents of the plate were mixed and then incubated in the dark for 1 hour at RT.

PASK, sequence (Q96RG2 999-1251): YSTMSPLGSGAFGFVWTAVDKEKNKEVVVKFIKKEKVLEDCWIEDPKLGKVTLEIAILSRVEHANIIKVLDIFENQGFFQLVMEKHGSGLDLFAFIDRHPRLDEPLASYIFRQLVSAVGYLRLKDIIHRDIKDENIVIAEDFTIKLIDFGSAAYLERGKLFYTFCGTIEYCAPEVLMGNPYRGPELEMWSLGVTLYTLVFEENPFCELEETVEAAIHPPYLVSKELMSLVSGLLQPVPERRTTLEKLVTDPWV

SMILES | IC50
CS(=O)(=O)N1CCN(c2nc3cc(C(=O)O)ccc3nc2-c2ccccc2)CC1 [Example 33, 3-(4-(Methylsulfonyl)piperazin-1-yl)-2-phenylquinoxaline-6-carboxylic acid] | ≤ 10 µM
CC(=O)N(C)C1CCN(c2nc3cc(C(=O)O)ccc3nc2-c2ccccc2)CC1 [Example 34, 3-(4-(N-Methylacetamido)piperidin-1-yl)-2-phenylquinoxaline-6-carboxylic acid] | ≤ 10 µM
CN(c1ccccc1)C1CCN(c2nc3cc(C(=O)O)ccc3nc2-c2ccccc2)CC1 [Example 35, 3-(4-(Methyl(phenyl)amino)piperidin-1-yl)-2-phenylquinoxaline-6-carboxylic acid] | ≤ 10 µM
CCN(CC)c1nc2cc(C(=O)O)ccc2nc1-c1ccccc1 [Example 36, 3-(Diethylamino)-2-phenylquinoxaline-6-carboxylic acid] | ≤ 10 µM
CC(=O)NC1CCN(c2nc3cc(C(=O)O)ccc3nc2-c2ccccc2)CC1 [Example 37, 3-(4-Acetamidopiperidin-1-yl)-2-phenylquinoxaline-6-carboxylic acid] | ≤ 10 µM
O=C(O)c1ccc2nc(-c3ccccc3)c(N3CCc4ccccc4C3)nc2c1 [Example 39, 3-(3,4-Dihydroisoquinolin-2(1H)-yl)-2-phenylquinoxaline-6-carboxylic acid] | ≤ 10 µM
O=C(O)c1ccc2nc(-c3ccccc3)c(NCCc3ccccc3)nc2c1 [Example 41, 3-(Phenethylamino)-2-phenylquinoxaline-6-carboxylic acid] | ≤ 10 µM
CN(CCc1ccccc1)c1nc2cc(C(=O)O)ccc2nc1-c1ccccc1 [Example 42, 3-(Methyl(phenethyl)amino)-2-phenylquinoxaline-6-carboxylic acid] | ≤ 10 µM
O=C(O)c1ccc2nc(-c3ccccc3)c(NC3CCCCC3)nc2c1 [Example 44, 3-(Cyclohexylamino)-2-phenylquinoxaline-6-carboxylic acid] | ≤ 10 µM
CCC(C)N(C)c1nc2cc(C(=O)O)ccc2nc1-c1ccccc1 (stereo not shown) [Example 48, 3-(sec-Butyl(methyl)amino)-2-phenylquinoxaline-6-carboxylic acid] | ≤ 10 µM
O=C(O)c1ccc2nc(-c3ccccc3)c(N3CC[C@@H](O)C3)nc2c1 [Example 49, (R)-3-(3-Hydroxypyrrolidin-1-yl)-2-phenylquinoxaline-6-carboxylic acid] | ≤ 10 µM
O=C(O)c1ccc2nc(-c3ccccc3)c(N3CC[C@H](O)C3)nc2c1 [Example 50, (S)-3-(3-Hydroxypyrrolidin-1-yl)-2-phenylquinoxaline-6-carboxylic acid] | ≤ 10 µM
O=C(O)c1ccc2nc(-c3ccccc3)c(N3CCC[C@H]3CO)nc2c1 [Example 53, (S)-3-(2-(Hydroxymethyl)pyrrolidin-1-yl)-2-phenylquinoxaline-6-carboxylic acid] | ≤ 10 µM
C[C@H](c1ccccc1)N(C)c1nc2cc(C(=O)O)ccc2nc1-c1ccccc1 [Example 59, (R)-3-(Methyl(1-phenylethyl)amino)-2-phenylquinoxaline-6-carboxylic acid] | ≤ 10 µM
C[C@@H](c1ccccc1)N(C)c1nc2cc(C(=O)O)ccc2nc1-c1ccccc1 [Example 60, (S)-3-(Methyl(1-phenylethyl)amino)-2-phenylquinoxaline-6-carboxylic acid] | ≤ 10 µM
CC[C@@H](C)N(C)c1nc2cc(C(=O)O)ccc2nc1-c1ccccc1 [Example 61, (R)-3-(sec-Butyl(methyl)amino)-2-phenylquinoxaline-6-carboxylic acid] | ≤ 10 µM
O=C(O)c1ccc2nc(-c3ccccc3)c(-n3ccc4ccccc43)nc2c1 [Example 62, 3-(1H-Indol-1-yl)-2-phenylquinoxaline-6-carboxylic acid] | ≤ 10 µM
O=C(O)c1ccc2nc(-c3ccccc3)c(N3CCc4ccccc43)nc2c1 [Example 67, 3-(Indolin-1-yl)-2-phenylquinoxaline-6-carboxylic acid] | ≤ 10 µM
O=C(O)c1ccc2nc(-c3ccccc3)c(N3CCOc4ccccc43)nc2c1 [Example 68, 3-(2,3-Dihydrobenzo[b][1,4]oxazin-4-yl)-2-phenylquinoxaline-6-carboxylic acid] | ≤ 10 µM

SMILES | IC50
COc1cccc(-c2nc3ccc(C(=O)O)cc3nc2N(C)C(C)C)c1 [Example 69, 3-(Isopropyl(methyl)amino)-2-(3-methoxyphenyl)quinoxaline-6-carboxylic acid] | ≤ 10 µM
CC(C)N(C)c1nc2cc(C(=O)O)ccc2nc1-c1cccc(F)c1 [Example 70, 2-(3-Fluorophenyl)-3-(isopropyl(methyl)amino)quinoxaline-6-carboxylic acid] | ≤ 10 µM
CC(C)N(C)c1nc2cc(C(=O)O)ccc2nc1-c1ccccc1F [Example 71, 2-(2-Fluorophenyl)-3-(isopropyl(methyl)amino)quinoxaline-6-carboxylic acid] | ≤ 10 µM
CC(C)N(C)c1nc2cc(C(=O)O)ccc2nc1-c1ccc(S(C)(=O)=O)cc1 [Example 82, 3-(Isopropyl(methyl)amino)-2-(4-(methylsulfonyl)phenyl)quinoxaline-6-carboxylic acid] | ≥ 10 µM
CC(C)N(C)c1nc2cc(C(=O)O)ccc2nc1-c1ccc(OC(F)(F)F)cc1 [Example 85, 3-(Isopropyl(methyl)amino)-2-(4-(trifluoromethoxy)phenyl)quinoxaline-6-carboxylic acid] | ≤ 10 µM
CC(C)N(C)c1nc2cc(C(=O)O)ccc2nc1-c1ccc(C#N)cc1 [Example 86, 2-(4-Cyanophenyl)-3-(isopropyl(methyl)amino)quinoxaline-6-carboxylic acid] | ≤ 10 µM
C[C@H]1CN(c2ccccn2)CCN1c1nc2cc(C(=O)O)ccc2nc1-c1ccc(F)cc1 [Example 90, (S)-2-(4-Fluorophenyl)-3-(2-methyl-4-(pyridin-2-yl)piperazin-1-yl)quinoxaline-6-carboxylic acid] | ≤ 10 µM
C[C@H]1CCCCN1c1nc2cc(C(=O)O)ccc2nc1-c1ccc(F)cc1 [Example 91, (S)-2-(4-Fluorophenyl)-3-(2-methylpiperidin-1-yl)quinoxaline-6-carboxylic acid] | ≤ 10 µM
CN(c1nc2cc(C(=O)O)ccc2nc1-c1ccc(F)cc1)C1CC1 [Example 92, 3-(Cyclopropyl(methyl)amino)-2-(4-fluorophenyl)quinoxaline-6-carboxylic acid] | ≤ 10 µM
COC[C@H]1CCCN1c1nc2cc(C(=O)O)ccc2nc1-c1ccc(F)cc1 [Example 93, (R)-2-(4-Fluorophenyl)-3-(2-(methoxymethyl)pyrrolidin-1-yl)quinoxaline-6-carboxylic acid] | ≤ 10 µM
C[C@H]1CN(c2ccccn2)CCN1c1nc2cc(C(=O)O)ccc2nc1-c1ccccc1 [Example 94, (S)-3-(2-Methyl-4-(pyridin-2-yl)piperazin-1-yl)-2-phenylquinoxaline-6-carboxylic acid] | ≤ 10 µM
O=C(O)c1ccc2nc(-c3ccccc3)c(N3CCCC4CCCCC43)nc2c1 (stereo not shown) [Example 96, 3-(Octahydroquinolin-1(2H)-yl)-2-phenylquinoxaline-6-carboxylic acid] | ≤ 10 µM
CC(C)N(C)c1nc2cc(C(=O)O)ccc2nc1-c1cccnc1 [Example 97, 3-(Isopropyl(methyl)amino)-2-(pyridin-3-yl)quinoxaline-6-carboxylic acid] | ≤ 10 µM
CC(C)N(C)c1nc2cc(C(=O)O)ccc2nc1-c1ccco1 [Example 98, 2-(Furan-2-yl)-3-(isopropyl(methyl)amino)quinoxaline-6-carboxylic acid] | ≤ 10 µM
CC(C)N(C)c1nc2cc(C(=O)O)ccc2nc1-c1cnc2ccccc2c1 [Example 99, 3-(Isopropyl(methyl)amino)-2-(quinolin-3-yl)quinoxaline-6-carboxylic acid] | ≤ 10 µM
CC(C)N(C)c1nc2cc(C(=O)O)ccc2nc1-c1ccc(N2CCOCC2)cc1 [Example 100, 3-(Isopropyl(methyl)amino)-2-(4-morpholinophenyl)quinoxaline-6-carboxylic acid] | ≤ 10 µM
O=C(O)c1ccc2nc(-c3ccc(F)cc3)c(N3CCS(=O)(=O)CC3)nc2c1 [Example 101, 3-(1,1-Dioxidothiomorpholino)-2-(4-fluorophenyl)quinoxaline-6-carboxylic acid] | ≥ 10 µM
O=C(O)c1ccc2nc(-c3ccccc3)c(N3CCS(=O)(=O)CC3)nc2c1 [Example 102, 3-(1,1-Dioxidothiomorpholino)-2-phenylquinoxaline-6-carboxylic acid] | ≥ 10 µM
